{"source": "patent US20070128217A1", "about": "(priority 2003, published 2007)", "key": {"[1]": {"test_system": "recombinant human anti-SARS-CoV antibody 03-018", "assay_type": "binding", "set-up": "Binding of antibody 03-018 to linear peptides of the N protein of SARS-CoV Urbani / Binding of antibody 03-018 to looped/cyclic peptides of the N protein of SARS-CoV Urbani: unit not given here"}, "[2]": {"test_system": "control sera (pooled serum of ten healthy LUMC hospital workers; commercial negative donor pooled serum from the Dutch bloodbank)", "assay_type": "binding, human", "set-up": "Binding of Control serum LUMC to linear peptides / Binding of Control serum Blood-bank to linear peptides / Binding of Control serum LUMC to looped peptides / Binding of Control Serum Blood-Bank to Looped peptides / Binding of Control serum LUMC to linear peptides of the protein M of SARS-CoV Urbani / Binding of Control serum Blood-bank to linear peptides of the protein M of SARS-CoV Urbani / Binding of Control serum LUMC to looped peptides of the protein M of SARS-CoV Urbani / Binding of Control Serum Blood-Bank to Looped peptides of the protein M of SARS-CoV Urbani: unit not given here"}, "[3]": {"test_system": "rabbit serum obtained by immunizing a rabbit with the SARS-CoV strain Frankfurt 1", "assay_type": "binding", "set-up": "Binding of a rabbit serum to linear peptides / Binding of a rabbit serum to looped peptides / Rabbit serum linear peptides / Rabbit serum looped peptides / Binding of a rabbit serum to linear peptides of protein N of SARS-CoV Urbani (Rabbit serum linear peptides) / Binding of a rabbit serum to looped/cyclic peptides of protein N of SARS-CoV Urbani (Rabbit serum looped peptides): unit not given here"}, "[4]": {"test_system": "antibodies in sera from SARS patients (sera 1a, 1b, 2, 6, 37, 62, London, SARS-yellow, SARS-green)", "assay_type": "binding, human", "set-up": "Binding of serum 6 to linear peptides of protein X1 of SARS-CoV Urbani / Binding of serum 37 to linear peptides of protein X1 of SARS-CoV Urbani / Binding of serum 6 to looped/cyclic peptide (PEPSCAN-ELISA) / Binding of serum 37 to looped/cyclic peptide (PEPSCAN-ELISA) / Binding of serum 37 to looped/cyclic peptides of protein X1 of SARS-CoV Urbani / Binding of serum 6 to linear peptides of protein X2 / Binding of serum 37 to linear peptides of protein X2 / Binding of serum 37 to looped/cyclic peptides of protein X2 of SARS-CoV Urbani / Binding of serum 6 to linear peptides of protein M of SARS-CoV Urbani / Binding of serum 37 to linear peptides of protein M of SARS-CoV Urbani / Binding of serum 6 to looped/cyclic peptides of protein M of SARS-CoV Urbani / Binding of serum 37 to looped/cyclic peptides of protein M of SARS-CoV Urbani / Binding of serum 6 to linear peptides of protein X3 of SARS-CoV Urbani / Binding of serum 37 to linear peptides of protein X3 of SARS-CoV Urbani / Binding of serum 37 to looped/cyclic peptides of protein X3 of SARS-CoV Urbani / Binding of serum 6 to linear peptides of protein X4 of SARS-CoV Urbani / Binding of serum 37 to linear peptides of protein X4 of SARS-CoV Urbani / Binding of serum 37 to looped/cyclic peptides of protein X4 of SARS-CoV Urbani / Binding of serum 6 to linear peptides of protein X5 of SARS-CoV Urbani / Binding of serum 37 to linear peptides of protein X5 of SARS-CoV Urbani / Binding of serum 37 to looped/cyclic peptides of protein X5 of SARS-CoV Urbani / Binding of serum 6 to linear peptides of protein N of SARS-CoV Urbani / Binding of serum 37 to linear peptides of protein N of SARS-CoV Urbani / Binding of serum 6 to linear peptide (PEPSCAN-ELISA) / Binding of serum 1a to looped/cyclic peptides of protein N of SARS-CoV Urbani / Binding of serum 1b to looped/cyclic peptides of protein N of SARS-CoV Urbani / Binding of serum 2 to looped/cyclic peptides of protein N of SARS-CoV Urbani / Binding of serum 6 to looped/cyclic peptides of protein N of SARS-CoV Urbani / Binding of serum 37 to looped/cyclic peptides of protein N of SARS-CoV Urbani / Binding of serum 62 to looped/cyclic peptides of protein N of SARS-CoV Urbani / Binding of serum London to looped/cyclic peptides of protein N of SARS-CoV Urbani / Binding of serum SARS-green to looped/cyclic peptides of protein N of SARS-CoV Urbani: unit not given here"}}}
{"sequence": "GTGPEASLPYGANKE", "values": [{"measurement": "Binding of antibody 03-018 to linear peptides of the N protein of SARS-CoV Urbani", "setting": "[1]", "result": 0.1}, {"measurement": "Binding of antibody 03-018 to looped/cyclic peptides of the N protein of SARS-CoV Urbani", "setting": "[1]", "result": 0.2}, {"measurement": "Binding of Control Serum Blood-Bank to Looped peptides", "setting": "[2]", "result": 0.4}, {"measurement": "Binding of Control serum Blood-bank to linear peptides", "setting": "[2]", "result": 0.7}, {"measurement": "Binding of Control serum LUMC to linear peptides", "setting": "[2]", "result": 0.8}, {"measurement": "Binding of Control serum LUMC to looped peptides", "setting": "[2]", "result": 0.4}, {"measurement": "Binding of a rabbit serum to linear peptides of protein N of SARS-CoV Urbani (Rabbit serum linear peptides)", "setting": "[3]", "result": 0.1}, {"measurement": "Binding of a rabbit serum to looped/cyclic peptides of protein N of SARS-CoV Urbani (Rabbit serum looped peptides)", "setting": "[3]", "result": 0.3}, {"measurement": "Binding of serum 1a to linear peptides of protein N of SARS-CoV Urbani", "setting": "[4]", "result": 0.3}, {"measurement": "Binding of serum 1a to looped/cyclic peptides of protein N of SARS-CoV Urbani", "setting": "[4]", "result": 0.2}, {"measurement": "Binding of serum 1b to linear peptides of protein N of SARS-CoV Urbani", "setting": "[4]", "result": 0.1}, {"measurement": "Binding of serum 1b to looped/cyclic peptides of protein N of SARS-CoV Urbani", "setting": "[4]", "result": 0.2}, {"measurement": "Binding of serum 2 to linear peptides of protein N of SARS-CoV Urbani", "setting": "[4]", "result": 0.3}, {"measurement": "Binding of serum 2 to looped/cyclic peptides of protein N of SARS-CoV Urbani", "setting": "[4]", "result": 0.2}, {"measurement": "Binding of serum 6 to linear peptides of protein N of SARS-CoV Urbani", "setting": "[4]", "result": 0.2}, {"measurement": "Binding of serum 6 to looped/cyclic peptides of protein N of SARS-CoV Urbani", "setting": "[4]", "result": 0.1}, {"measurement": "Binding of serum 37 to linear peptides of protein N of SARS-CoV Urbani", "setting": "[4]", "result": 0.9}, {"measurement": "Binding of serum 37 to looped/cyclic peptides of protein N of SARS-CoV Urbani", "setting": "[4]", "result": 0.4}, {"measurement": "Binding of serum 62 to linear peptides of protein N of SARS-CoV Urbani", "setting": "[4]", "result": 0.9}, {"measurement": "Binding of serum 62 to looped/cyclic peptides of protein N of SARS-CoV Urbani", "setting": "[4]", "result": 0.3}, {"measurement": "Binding of serum London to linear peptides of protein N of SARS-CoV Urbani", "setting": "[4]", "result": 0.7}, {"measurement": "Binding of serum London to looped/cyclic peptides of protein N of SARS-CoV Urbani", "setting": "[4]", "result": 0.3}, {"measurement": "Binding of serum SARS-green to linear peptides of protein N of SARS-CoV Urbani", "setting": "[4]", "result": 0.7}, {"measurement": "Binding of serum SARS-green to looped/cyclic peptides of protein N of SARS-CoV Urbani", "setting": "[4]", "result": 0.2}, {"measurement": "Binding of serum SARS-yellow to linear peptides of protein N of SARS-CoV Urbani", "setting": "[4]", "result": 0.6}, {"measurement": "Binding of serum SARS-yellow to looped/cyclic peptides of protein N of SARS-CoV Urbani", "setting": "[4]", "result": 0.2}]}
{"sequence": "GTRNPNNNAATVLQL", "values": [{"measurement": "Binding of antibody 03-018 to linear peptides of the N protein of SARS-CoV Urbani", "setting": "[1]", "result": 0.1}, {"measurement": "Binding of antibody 03-018 to looped/cyclic peptides of the N protein of SARS-CoV Urbani", "setting": "[1]", "result": 0.3}, {"measurement": "Binding of Control Serum Blood-Bank to Looped peptides", "setting": "[2]", "result": 1.0}, {"measurement": "Binding of Control serum Blood-bank to linear peptides", "setting": "[2]", "result": 0.8}, {"measurement": "Binding of Control serum LUMC to linear peptides", "setting": "[2]", "result": 0.8}, {"measurement": "Binding of Control serum LUMC to looped peptides", "setting": "[2]", "result": 0.8}, {"measurement": "Binding of a rabbit serum to linear peptides of protein N of SARS-CoV Urbani (Rabbit serum linear peptides)", "setting": "[3]", "result": 0.1}, {"measurement": "Binding of a rabbit serum to looped/cyclic peptides of protein N of SARS-CoV Urbani (Rabbit serum looped peptides)", "setting": "[3]", "result": 0.6}, {"measurement": "Binding of serum 1a to linear peptides of protein N of SARS-CoV Urbani", "setting": "[4]", "result": 0.3}, {"measurement": "Binding of serum 1a to looped/cyclic peptides of protein N of SARS-CoV Urbani", "setting": "[4]", "result": 0.4}, {"measurement": "Binding of serum 1b to linear peptides of protein N of SARS-CoV Urbani", "setting": "[4]", "result": 0.1}, {"measurement": "Binding of serum 1b to looped/cyclic peptides of protein N of SARS-CoV Urbani", "setting": "[4]", "result": 0.3}, {"measurement": "Binding of serum 2 to linear peptides of protein N of SARS-CoV Urbani", "setting": "[4]", "result": 0.3}, {"measurement": "Binding of serum 2 to looped/cyclic peptides of protein N of SARS-CoV Urbani", "setting": "[4]", "result": 0.7}, {"measurement": "Binding of serum 6 to linear peptides of protein N of SARS-CoV Urbani", "setting": "[4]", "result": 0.2}, {"measurement": "Binding of serum 6 to looped/cyclic peptides of protein N of SARS-CoV Urbani", "setting": "[4]", "result": 0.4}, {"measurement": "Binding of serum 37 to linear peptides of protein N of SARS-CoV Urbani", "setting": "[4]", "result": 0.7}, {"measurement": "Binding of serum 37 to looped/cyclic peptides of protein N of SARS-CoV Urbani", "setting": "[4]", "result": 0.9}, {"measurement": "Binding of serum 62 to linear peptides of protein N of SARS-CoV Urbani", "setting": "[4]", "result": 0.7}, {"measurement": "Binding of serum 62 to looped/cyclic peptides of protein N of SARS-CoV Urbani", "setting": "[4]", "result": 0.9}, {"measurement": "Binding of serum London to linear peptides of protein N of SARS-CoV Urbani", "setting": "[4]", "result": 0.5}, {"measurement": "Binding of serum London to looped/cyclic peptides of protein N of SARS-CoV Urbani", "setting": "[4]", "result": 0.5}, {"measurement": "Binding of serum SARS-green to linear peptides of protein N of SARS-CoV Urbani", "setting": "[4]", "result": 0.3}, {"measurement": "Binding of serum SARS-green to looped/cyclic peptides of protein N of SARS-CoV Urbani", "setting": "[4]", "result": 0.6}, {"measurement": "Binding of serum SARS-yellow to linear peptides of protein N of SARS-CoV Urbani", "setting": "[4]", "result": 0.6}, {"measurement": "Binding of serum SARS-yellow to looped/cyclic peptides of protein N of SARS-CoV Urbani", "setting": "[4]", "result": 0.5}]}
